Results from patent publication US20040180855A1, “Methods of treating thrombosis with reduced risk of increased bleeding times” (priority 2003, published 2004).

Legend:
Plasmin = molecular target: T1, Plasmin (Homo sapiens, UniProt P00747); assay: Selectivity assay plasmin; assay type: biochemical; settings: Table 3
T1 construct: Plasmin (Kabi Vitrum) was measured as for thrombin; purchased Kabi Vitrum

[1] = system: FeCl2-induced carotid artery thrombosis; assay: Arterial thrombosis model (FeCl2 carotid artery); assay type: in vivo, rat; settings: i.v. 12 mg/kg plus 12 mg/kg/hr
Protocol: General Surgical Preparation Male Sprague Dawley rats (310 to 390 g) were anesthetized with Na-pentobarbital (50 mg/kg i.p.). The left jugular vein was cannulated with PE-50 tubing for drug administration, and the trachea was intubated with PE-205 tubing to ensure airway patency. In some animals, a carotid artery was cannulated with PE-50 tubing to obtain blood samples, and a procedure was followed as described in Schumacher et al., “Comparison of Thrombin Active-Site and Exosite Inhibitors and Heparin in Experimental Models of Arterial and Venous Thrombosis and Bleeding,” J. Pharmacol. Exp. Therap., Vol. 267 (1993), at pp. 1237-42; Schumacher et al., Effects of Antithrombotic Drugs in a Rat Model of Aspirin-Insensitive Arterial Thrombosis, Thromb Haemostasis, Vol. 69 (1993), at pp. 509-514; or Schumacher et al., Effect of a Novel Thrombin Active-Site Inhibitor on Arterial and Venous Thrombosis, Eur J Pharmacol., Vol. 259 (1994), at pp. 165-171, each of which is incorporated herein by reference. […]
Arterial Thrombosis The left carotid artery was exposed and a piece of parafilm “M” (American National Can, Greenwich, Conn.) was inserted under the vessel. […] Carotid blood flow (CBF) was monitored continuously on a TA3800 physiologic recorder (Gould, Cleveland, Ohio). Total CBF was determined and normalized as percent of baseline (0 min) flow over 60 min to provide a measure of average blood flow during thrombus formation.
(§1) Statistical Analysis In the venous and arterial thrombosis procedures, treatment effects on thrombus weight, baseline blood flow, and average blood flow during thrombosis were determined by analysis of variance with Dunnett's test for comparison to the vehicle group. […] Treatment effects on bleeding times were determined by analysis of variance with Dunnett's test for comparison to the vehicle group. Both post-treatment and pre-treatment bleeding times and the relative bleeding time increases in sec were analyzed. […]

[2] = system: mesenteric artery bleeding time; assay: Mesenteric artery bleeding time (MABT) model; assay type: in vivo; settings: rat, i.v. 12+12 and 24+24 mg/kg+mg/kg/hr, pre- vs post-treatment, FIG. 6
Protocol: (§2) Experimental Bleeding Time Two models of bleeding time were performed, namely, a renal cortex bleeding model (using template incision of the renal cortex), and a mesenteric artery bleeding model (using severance of small mesenteric arteries).
In the mesenteric artery bleeding time (MABT) model, the abdomen was opened via a midline incision and the small intestine was exteriorized. The jejunum was exposed, held in place with clamps and superfused with Ringer's solution maintained at 37° C. Small arteries that branch perpendicular to the mesenteric artery and course over the surface of the jejunum were observed through an SZH10 stereomicroscope (Olympus Corp., Lake Success, N.Y.). These vessels were punctured with a 30-gauge hypodermic needle and the time in sec from puncturing until bleeding stopped was recorded. Bleeding times were determined in 3-5 arteries before administration of test article and in 3-5 arteries 20 min after the start of test article infusion. […]
as §1, with “group.” for “group. Both post-treatment and pre-treatment bleeding times and the relative bleeding time increases in sec were analyzed.”

human α-thrombin = molecular target: T2, human α-thrombin (Homo sapiens, UniProt P00734); assay: Selectivity assay thrombin; assay type: biochemical; settings: Table 3
T2 construct: Enzymatic activity of human α-thrombin (Sigma) was measured; purchased Sigma

[3] = system: renal cortex bleeding time; assay: Renal cortex bleeding time (RCBT) model; assay type: in vivo; settings: rat, i.v. 12+12 and 24+24 mg/kg+mg/kg/hr, pre- vs post-treatment, FIG. 5
Protocol: as §2
In the renal cortex bleeding time (RCBT) model, both kidneys were exposed by a midline abdominal incision, and the renal capsules were removed to expose the bare renal cortex which was superfused with Ringer's solution maintained at 37° C. […] While observing under 3×-binocular magnifier, the time in sec from injury until bleeding stopped was recorded. Three bleeding times were determined on the right kidney before, and on the left kidney 15 min after, the start of test article infusion. […]
as §1

T1 sequence (P00747 581-810 limits assumed): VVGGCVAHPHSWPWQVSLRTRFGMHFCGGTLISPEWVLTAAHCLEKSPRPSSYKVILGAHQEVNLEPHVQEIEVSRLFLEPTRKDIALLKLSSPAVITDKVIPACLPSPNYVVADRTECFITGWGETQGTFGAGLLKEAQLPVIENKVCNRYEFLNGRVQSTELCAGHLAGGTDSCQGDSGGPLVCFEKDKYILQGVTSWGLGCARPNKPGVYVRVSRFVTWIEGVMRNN
T1 sequence (P00747 97-580 partner limits assumed): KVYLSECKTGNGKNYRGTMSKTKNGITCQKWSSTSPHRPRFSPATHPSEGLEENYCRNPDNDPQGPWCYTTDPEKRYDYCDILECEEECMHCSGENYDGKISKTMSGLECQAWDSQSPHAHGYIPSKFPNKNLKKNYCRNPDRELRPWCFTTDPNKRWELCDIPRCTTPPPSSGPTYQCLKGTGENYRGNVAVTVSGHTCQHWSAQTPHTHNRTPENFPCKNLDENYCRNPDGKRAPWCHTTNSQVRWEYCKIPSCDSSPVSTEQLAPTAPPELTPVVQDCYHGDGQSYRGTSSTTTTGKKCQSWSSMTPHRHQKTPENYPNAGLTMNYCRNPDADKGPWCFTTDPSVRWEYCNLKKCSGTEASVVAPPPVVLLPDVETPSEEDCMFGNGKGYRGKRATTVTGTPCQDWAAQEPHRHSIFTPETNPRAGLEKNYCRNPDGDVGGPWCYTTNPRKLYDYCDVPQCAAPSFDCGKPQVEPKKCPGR

IC50 (Plasmin): 1.7 µM
effect on mesenteric artery bleeding times [2]: no effect
IC50 (human α-thrombin): 10.5 µM
effect on renal cortex bleeding times [3]: no effect
SMILES: CC(C)(C)NC(=O)N1CCN(C(=O)N2C(=O)[C@H](CCCNC(=N)N)[C@H]2C(=O)O)CC1 [Example 4]
decrease in thrombus weight ([1]; rat carotid artery, FIG. 2): 73%
average blood flow during thrombosis and vessel patency ([1]; rat): improvement
effect on FeCl2-induced carotid artery thrombosis (carotid blood flow, FIG. 1) ([1]; rat): prevented
